Laboratory results reported in US20230055237A1, “COMPOUNDS AND METHODS FOR THE TREATMENT OF CYSTIC FIBROSIS” (Flatley Discovery Lab, LLC, priority 2019, published 2023).

Target: T1, CFTR (Homo sapiens, UniProt P13569, DEL508-508)
T1 construct: Primary CF airway epithelial cells were obtained from the UNC Cystic Fibrosis Tissue Procurement and Cell Culture Core; host or cells: primary CF airway epithelial cells, differentiated at the air-liquid interface
Experiment: Equivalent current assay in primary CF airway epithelial cells (NAUC, combination with 1st site corrector FDL169 or VX-809)
Format: cell-based
Conditions: 37° C., 24 h
Method: Primary CF airway epithelial cells were obtained from the UNC Cystic Fibrosis Tissue Procurement and Cell Culture Core. The cells are grown at 37° C. in a Heracell 150i incubator using growth media (BEGM, Fischer). […] Two days before the Ussing assay the mucus on the apical surface of the cells was aspirated after incubating with 200 μL of differentiation media for at least thirty (30) minutes. One day before the Ussing assay test compounds were added to the basolateral surface of the cells at various test concentrations dissolved in DMSO. Duplicate wells were prepared giving a n=3 or n=4 protocol.
Cells were treated for 24 hours with various combinations and concentrations of the test articles, reference standard (3 μM VX809 or 3 μM FDL169, positive control). Compounds stock solutions were prepared in DMSO and diluted 1/1000 into ALI media to their final assay concentration. Cells were treated with combination solutions (2 mL of each dilution) and incubated at 37° C. for 24 h.
For the equivalent current assay, cells on four Transwell (24-well) plates were treated. Each Transwell plate was filled with 200 μl of HBS on the apical surface and 2 ml on the basolateral surface. Plates were placed horizontally in a heated mount at 37° C., and equilibrated for several minutes. Resting current was measured for 15 min and then blocked by the apical addition of 5 μM benzamil. After 20 min, 10 μM forskolin and 1 μM VX770 were added to both the apical and basolateral side to stimulate CFTR. An increase in chloride current is seen as an upward deflection of the trace.
The raw data, current vs. time for the Ussing chamber (sampling interval: 10 s) and voltage vs. time and resistance vs. time for the equivalent current assay (sampling interval: 5 minutes) were transferred to Excel (Microsoft Office Professional, version 14.0.7106.5003) for analysis. […] This average is equivalent to the sum of the average forskolin activated and the average VX770-potentiated currents. The average current measured in vehicle (0.1% DMSO) treated cells, Iv, was subtracted from the current for the test article, ITA, or from the corrector reference standard VX809 (3 uM ISTD). For replicate measurements, the average vehicle subtracted response for the test article, was normalized to the average vehicle subtracted inhibitor response of the reference corrector VX809 (3 μM).
A second endpoint, for the equivalent current assay, evaluated was NAUC, the normalized area under the curve (AUC) measuring the response after addition of forskolin and VX770 to the time point right before the addition of the CFTR inhibitor. The AUC is effectively the average response multiplied by the duration of the response.
NAUCTA=[AUCTA−AUCV,ave]/[AUCVx809r,ave−AUCV,ave] (Equation 2).
Experiments were run with a minimum of n=4 replicates per concentration. Since the distribution for the ratio of two normal distributions is a Cauchy distribution, the median value must be used for the average and the average deviation must be used for the error of all normalized data.
E=Emin+(Emax−Emin)/(1+10^((LogEC5OS)*nH)) (Equation 3)

[1] = test compound 10 μM in combination with 1st site corrector VX-809 (3 μM)
[2] = test compound 3 μM in combination with 1st site corrector VX-809 (3 μM)
[3] = test compound 1 μM in combination with 1st site corrector FDL169 (3 μM)
[4] = test compound 3 μM in combination with 1st site corrector FDL169 (3 μM)
[5] = test compound 10 μM in combination with 1st site corrector FDL169 (3 μM)

T1 sequence (P13569 with tags, fused parts or gaps DEL508-508): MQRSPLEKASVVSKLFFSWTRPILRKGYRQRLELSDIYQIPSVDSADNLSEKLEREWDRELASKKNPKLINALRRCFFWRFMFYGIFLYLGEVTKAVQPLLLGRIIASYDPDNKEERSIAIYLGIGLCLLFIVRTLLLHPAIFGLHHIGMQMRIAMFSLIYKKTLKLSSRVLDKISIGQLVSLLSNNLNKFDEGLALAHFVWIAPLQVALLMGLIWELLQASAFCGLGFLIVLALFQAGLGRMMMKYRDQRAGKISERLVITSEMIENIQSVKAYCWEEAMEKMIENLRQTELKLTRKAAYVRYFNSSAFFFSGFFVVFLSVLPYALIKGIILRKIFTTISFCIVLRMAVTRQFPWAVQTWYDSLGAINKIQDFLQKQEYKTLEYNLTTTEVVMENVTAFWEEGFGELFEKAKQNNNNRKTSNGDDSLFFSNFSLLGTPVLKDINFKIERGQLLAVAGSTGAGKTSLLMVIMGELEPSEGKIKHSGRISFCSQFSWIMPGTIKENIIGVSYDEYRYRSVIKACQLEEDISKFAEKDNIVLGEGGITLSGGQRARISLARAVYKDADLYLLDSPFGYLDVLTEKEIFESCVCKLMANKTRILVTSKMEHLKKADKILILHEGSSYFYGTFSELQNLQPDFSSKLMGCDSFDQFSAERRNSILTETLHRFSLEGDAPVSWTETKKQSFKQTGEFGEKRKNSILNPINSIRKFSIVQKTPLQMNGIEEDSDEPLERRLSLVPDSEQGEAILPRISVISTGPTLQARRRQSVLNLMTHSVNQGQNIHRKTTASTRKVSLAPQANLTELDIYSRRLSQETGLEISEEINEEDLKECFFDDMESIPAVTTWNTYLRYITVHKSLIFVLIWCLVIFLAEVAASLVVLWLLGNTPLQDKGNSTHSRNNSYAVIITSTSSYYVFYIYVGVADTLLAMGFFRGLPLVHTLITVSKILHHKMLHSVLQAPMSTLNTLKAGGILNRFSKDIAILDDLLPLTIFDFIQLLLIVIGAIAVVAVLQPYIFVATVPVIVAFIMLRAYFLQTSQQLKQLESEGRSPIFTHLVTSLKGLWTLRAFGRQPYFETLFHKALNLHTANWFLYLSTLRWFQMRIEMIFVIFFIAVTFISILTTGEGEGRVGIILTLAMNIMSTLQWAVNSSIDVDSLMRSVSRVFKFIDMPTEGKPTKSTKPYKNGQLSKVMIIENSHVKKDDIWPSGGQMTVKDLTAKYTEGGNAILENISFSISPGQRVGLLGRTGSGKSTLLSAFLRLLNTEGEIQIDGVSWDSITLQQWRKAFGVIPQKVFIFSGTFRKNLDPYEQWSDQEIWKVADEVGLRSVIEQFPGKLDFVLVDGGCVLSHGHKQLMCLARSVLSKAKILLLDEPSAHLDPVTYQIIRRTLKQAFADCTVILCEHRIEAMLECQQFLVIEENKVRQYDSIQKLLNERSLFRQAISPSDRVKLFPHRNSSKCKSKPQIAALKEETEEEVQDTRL

Structure (SMILES) | Nauc @ 10 μM [1] | Nauc @ 3 μM [2] | further results
O=C(Nc1cc(Cl)cc(Cl)c1)C1C(C(F)(F)c2ccccn2)NC2(C(=O)Nc3c(Cl)cc(Cl)cc32)C1C(=O)O (stereo not drawn) [Example 72.c] | ++ (NAUC “++” refers to an observed NAUC 170-140% of positive control) |  | 
O=C(Nc1cc(Cl)cc(Cl)c1)C1C2N(CCC2(F)F)C2(C(=O)Nc3c(Cl)cc(Cl)cc32)C1C(=O)O (stereo not drawn) [Example 59] | ++ (NAUC “++” refers to an observed NAUC 170-140% of positive control) | + (NAUC “+” refers to an observed NAUC <140% of positive control) | 
CC(C)(C)C(C)(C)CN(C(=O)[C@H]1[C@H]2C[C@](C)(OCc3ccccc3)CN2[C@]2(C(=O)Nc3c(Cl)cc(Cl)cc32)[C@H]1C(=O)O)c1cc(Cl)cc(Cl)c1 [Example 95] |  |  | Nauc @ 1 μM [3]: +++ (NAUC “+++” refers to an observed NAUC>170% of positive control); Nauc @ 3 μM [4]: +++ (NAUC “+++” refers to an observed NAUC>170% of positive control); Nauc @ 10 μM [5]: +++ (NAUC “+++” refers to an observed NAUC>170% of positive control)
C[C@]1(OCc2ccccc2)C[C@@H]2[C@H](C(=O)N(CC3CC3)c3cc(Cl)cc(Cl)c3)[C@H](C(=O)O)[C@@]3(C(=O)Nc4c(Cl)cc(Cl)cc43)N2C1 [Example 93] |  |  | Nauc @ 1 μM [3]: +++ (NAUC “+++” refers to an observed NAUC>170% of positive control); Nauc @ 3 μM [4]: +++ (NAUC “+++” refers to an observed NAUC>170% of positive control); Nauc @ 10 μM [5]: ++ (NAUC “++” refers to an observed NAUC 170-140% of positive control)
O=C(Nc1cc(C(F)(F)F)cc(C(F)(F)F)n1)C1C2C[C@@](O)(C(F)(F)F)CN2C2(C(=O)Nc3c(Cl)cc(Cl)cc32)C1C(=O)O (stereo partly drawn) [Example 55] | + (NAUC “+” refers to an observed NAUC <140% of positive control) | ++ (NAUC “++” refers to an observed NAUC 170-140% of positive control) | 
CC(C)(C)c1cccc(CCNC(=O)C2C3CC(F)(F)CN3C3(C(=O)Nc4c(Cl)cc(Cl)cc43)C2C(=O)O)c1 (racemic) [Example 44, (1′R,2′S,3R,7a′R)-1′-((3-(tert-butyl)phenethyl)carbamoyl)-5,7-dichloro-6′,6′-difluoro-2-oxo-1′,2′,5′,6′,7′,7a′-hexahydrospiro[indoline-3,3′-pyrrolizine]-2′-carboxylic acid] | +++ (NAUC “+++” refers to an observed NAUC>170% of positive control) | +++ (NAUC “+++” refers to an observed NAUC>170% of positive control) | 
Cc1nn(-c2ccccc2)cc1N(CC1CC1)C(=O)[C@H]1[C@H]2CC(F)(F)CN2[C@]2(C(=O)Nc3c(Cl)cc(Cl)cc32)[C@H]1C(=O)O [Example 167] |  |  | Nauc @ 1 μM [3]: + (NAUC “+” refers to an observed NAUC <140% of positive control); Nauc @ 3 μM [4]: + (NAUC “+” refers to an observed NAUC <140% of positive control)
Cc1cccc(C(F)(F)C2NC3(C(=O)Nc4c(Cl)cc(Cl)cc43)C(C(=O)O)C2C(=O)Nc2cc(Cl)cc(Cl)c2)c1 (stereo not drawn) [Example 62] | +++ (NAUC “+++” refers to an observed NAUC>170% of positive control) |  | 
O=C(Nc1cncc(C(F)(F)F)n1)C1C2CCCN2C2(C(=O)Nc3c(Cl)cc(Cl)cc32)C1C(=O)O (stereo not drawn) [Example 29] | +++ (NAUC “+++” refers to an observed NAUC>170% of positive control) | ++ (NAUC “++” refers to an observed NAUC 170-140% of positive control) | 
O=C(Nc1cccc2cccnc12)[C@H]1[C@H]2CC(F)(F)CN2[C@]2(C(=O)Nc3c(Cl)cc(Cl)cc32)[C@H]1C(=O)O [Example 127] |  | + (NAUC “+” refers to an observed NAUC <140% of positive control) | Nauc @ 1 μM (test compound 1 μM in combination with 1st site corrector VX-809 (3 μM)): + (NAUC “+” refers to an observed NAUC <140% of positive control)
O=C(Nc1cc(Cl)cc(Cl)c1)C1C(C(F)(F)c2cccnc2)NC2(C(=O)Nc3c(Cl)cc(Cl)cc32)C1C(=O)O (stereo not drawn) [Example 74.a] | + (NAUC “+” refers to an observed NAUC <140% of positive control) |  | 
